The source of these data is PubChem BioAssay (NCI).

Some test systems named below: OVCAR-4 ovarian; SK-MEL-2 melanoma; NCI-H226 lung; OVCAR-8 ovarian; SNB-19 CNS; UACC-62 melanoma; TK-10 renal; HCT-116 colon; A498 renal; COLO 205 colon.
Experiment in all cases: NCI-60 cell line screen, 48 h

Structures are written as SMILES. Where “and” joins values, the source holds several entries; their conditions need not be identical. Equal values may be shown once.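 How tested: cells in 96-well plates exposed to compound for 48 hours at five concentrations. GI50 marks 50% less growth. TGI marks complete inhibition of growth.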 Where only a bound is given, the exact number is not on record here.

`O=Nc1c(-c2c(O)[nH]c3cc(Br)ccc23)[nH]c2ccccc12`: the GI50 in the test with OVCAR-4 ovarian is 1.23 µM; in the test on SK-MEL-2 melanoma, 1.11 µM; in the test with NCI-H226 lung, 0.932 µM; with OVCAR-8 ovarian it was 2.32 µM; in the test with SNB-19 CNS, 5.07 µM; with UACC-62 melanoma, 1.29 µM. Moreover, the GI50 is 0.954 µM in the test on TK-10 renal, 0.883 µM with HCT-116 colon, 0.416 µM with A498 renal and 1.35 µM with COLO 205 colon. Further, the TGI in the test with OVCAR-4 ovarian was 5.37 µM; in the test with SK-MEL-2 melanoma it was 3.41 µM; in the test with NCI-H226 lung it was 3.49 µM; in the test on OVCAR-8 ovarian, above 100 µM; with SNB-19 CNS, 16.7 µM; in the test with UACC-62 melanoma it was 2.95 µM. Further, the TGI with TK-10 renal stood at 5.12 µM; in the test on HCT-116 colon it was 2.27 µM; with A498 renal, 1.83 µM; in the test on COLO 205 colon, 2.84 µM.
As to `COc1cc(-c2nc3sc(C)cn3c2/C=C2\C(=O)Nc3ccccc32)c(Br)c(OC)c1OC`, the GI50 in the test with OVCAR-4 ovarian was 44.1 µM; in the test on SK-MEL-2 melanoma, 33.6 µM; with NCI-H226 lung it was 44.2 µM; in the test on OVCAR-8 ovarian, above 100 µM; in the test with SNB-19 CNS, 23.9 µM; with UACC-62 melanoma, 34 µM. Further, the GI50 was 32.9 µM in the test on TK-10 renal, 26 µM with HCT-116 colon, 29 µM with A498 renal and 25.7 µM in the test on COLO 205 colon. Further, the TGI with OVCAR-4 ovarian is above 100 µM; in the test on SK-MEL-2 melanoma it was above 100 µM; with NCI-H226 lung it was above 100 µM; in the test with OVCAR-8 ovarian, above 100 µM; in the test with SNB-19 CNS, 63.9 µM; with UACC-62 melanoma, above 100 µM. Also, the TGI is 77.5 µM in the test on TK-10 renal, above 100 µM with HCT-116 colon, 63.5 µM in the test with A498 renal and 66.2 µM in the test with COLO 205 colon.
In the case of `CSc1nc2nn(Cc3ccccc3)cc2c(=O)[nH]1`, the TGI in the test on OVCAR-4 ovarian, in the test with SK-MEL-2 melanoma, in the test with NCI-H226 lung, with OVCAR-8 ovarian, in the test with SNB-19 CNS and with UACC-62 melanoma was above 100 µM throughout. The TGI in the test on TK-10 renal, in the test with HCT-116 colon, in the test with A498 renal and in the test with COLO 205 colon was above 100 µM in each case.
For the compound `CC(C)(C)c1cc(NC(=O)Nc2ccc(-c3cn4c(n3)sc3cc(OCCN5CCOCC5)ccc34)cc2)no1`, the GI50 in the test with OVCAR-4 ovarian is 4.61 µM and 1.38 µM and 3.38 µM; with SK-MEL-2 melanoma, 6.73 µM and 2.78 µM and > 10 µM; in the test on NCI-H226 lung, 3.38 µM and 0.921 µM and 4.29 µM; in the test on OVCAR-8 ovarian, 1.14 µM and 0.544 µM and 1.51 µM; with SNB-19 CNS, 3.46 µM and 1.71 µM and 4.26 µM; with UACC-62 melanoma, 1.34 µM and 1.4 µM. Also, the GI50 in the test with TK-10 renal is 11.7 µM and 4.12 µM and > 10 µM; in the test on HCT-116 colon it was 4.23 µM and 0.576 µM and 5.19 µM; with A498 renal it was 13.9 µM and 2.13 µM and > 10 µM; in the test with COLO 205 colon, 7.75 µM and 1.21 µM and 1.76 µM. Further, the TGI with OVCAR-4 ovarian is 15.8 µM and 5.96 µM and > 10 µM; with SK-MEL-2 melanoma, 20.3 µM and 16.2 µM and > 10 µM; in the test on NCI-H226 lung, 18.6 µM and 5.24 µM and > 10 µM; in the test on OVCAR-8 ovarian, 12.3 µM and 11.8 µM and > 10 µM; in the test on SNB-19 CNS it was 20.3 µM and 17.1 µM and > 10 µM; in the test on UACC-62 melanoma, 15.2 µM and 9.53 µM. Also, the TGI in the test on TK-10 renal is 24.1 µM and 17.3 µM and > 10 µM; in the test on HCT-116 colon, 19 µM and 11.1 µM and > 10 µM; in the test on A498 renal it was 28.4 µM and 11 µM and > 10 µM; in the test on COLO 205 colon it was > 45.7 µM and 8.31 µM and 8.55 µM.
On to `Cc1ccc2cccc(OC(=O)Nc3cccc(C(F)(F)F)c3)c2n1`, for which the GI50 was 2.09 µM in the test with OVCAR-4 ovarian; 3.47 µM with SK-MEL-2 melanoma; 3.61 µM in the test with NCI-H226 lung; 3.5 µM in the test on OVCAR-8 ovarian; 2.89 µM with SNB-19 CNS; 3.05 µM in the test on UACC-62 melanoma. Besides, the GI50 is 3.87 µM with TK-10 renal, 3.27 µM in the test with HCT-116 colon, 2.59 µM in the test on A498 renal and 3.47 µM with COLO 205 colon. For the same compound, the TGI in the test on OVCAR-4 ovarian was 10.3 µM; with SK-MEL-2 melanoma, 12.1 µM; with NCI-H226 lung it was 14.1 µM; with OVCAR-8 ovarian it was 14.9 µM; with SNB-19 CNS, 12.5 µM; with UACC-62 melanoma it was 11.2 µM. In addition, the TGI in the test on TK-10 renal was determined as 18.2 µM; in the test with HCT-116 colon, 11.1 µM; in the test with A498 renal it was 9.46 µM; in the test on COLO 205 colon, 10.3 µM.
For `N#CCC(=O)N/N=C1/C(=O)N(c2cc(Cl)ccc2Cl)C(=O)C(=O)C1c1nc2ccccc2s1` (stereo not given), the TGI is above 100 µM in the test on OVCAR-4 ovarian; above 100 µM with SK-MEL-2 melanoma; above 100 µM in the test on NCI-H226 lung; above 100 µM with OVCAR-8 ovarian; above 100 µM in the test on SNB-19 CNS; 93.2 µM in the test on UACC-62 melanoma. In addition, the TGI with TK-10 renal, in the test on HCT-116 colon, in the test on A498 renal and in the test with COLO 205 colon was above 100 µM in each case.
Take `O=C(NCCCl)Nc1cccnc1`: the TGI was 90.7 µM in the test with OVCAR-4 ovarian; above 100 µM with SK-MEL-2 melanoma; 30.5 µM in the test on NCI-H226 lung; 27.9 µM with OVCAR-8 ovarian; 80.4 µM in the test on SNB-19 CNS; above 100 µM in the test with UACC-62 melanoma. The TGI with TK-10 renal amounted to 27.7 µM; in the test with HCT-116 colon, 32 µM; in the test on A498 renal, 40.5 µM; with COLO 205 colon, 51.3 µM.
`CCCCCCn1c(SC)nc(COC(=O)NC)c1COC(=O)NC`: the TGI with OVCAR-4 ovarian came out at 21.4 µM; in the test with SK-MEL-2 melanoma, 49.9 µM; in the test on NCI-H226 lung, 33.3 µM; in the test on OVCAR-8 ovarian it was 34.3 µM; with SNB-19 CNS, 29.8 µM; with UACC-62 melanoma, 28.2 µM. In addition, the TGI in the test on TK-10 renal was 31.2 µM; in the test with HCT-116 colon, 31.7 µM; in the test with A498 renal it was 30.8 µM; in the test on COLO 205 colon it was 29.2 µM.
Consider `CC1(C)N=C(N)N=C(N)N1c1ccc(Cl)cc1`, for which the GI50 in the test on OVCAR-4 ovarian is 14.9 µM; in the test on SK-MEL-2 melanoma, above 100 µM; with NCI-H226 lung it was above 100 µM; in the test with OVCAR-8 ovarian, 2.17 µM; in the test on SNB-19 CNS, 16.7 µM; with UACC-62 melanoma, 4.09 µM. Also, the GI50 with TK-10 renal is 9.9 µM; in the test on HCT-116 colon it was 0.627 µM; in the test on A498 renal, above 100 µM; in the test on COLO 205 colon it was 21.4 µM. The TGI in the test with OVCAR-4 ovarian, with SK-MEL-2 melanoma, with NCI-H226 lung, in the test with OVCAR-8 ovarian, in the test with SNB-19 CNS and in the test on UACC-62 melanoma was above 100 µM each time. Also, the TGI in the test on TK-10 renal, in the test on HCT-116 colon, with A498 renal and in the test with COLO 205 colon was above 100 µM each time.
